One may read the IC50 as the midpoint of a concentration-inhibition curve.

Counter-ions that a name gives are not always drawn.

13 molecules from patent publication US11827628B2, “Compositions and methods for inhibition of the JAK pathway” (Rigel Pharmaceuticals, Inc., priority 2005, dated 2023) can be followed below.

For the test, the system named is up-regulation of ICAM-1 (CD54) by IFNγ in U937 human monocytic cells. The test is described as follows: U937 IFNγ ICAM1 FACS Assay. Particulars: Homo sapiens, U-937, U937 cells stimulated with IFNγ, ICAM-1 expression by FACS; read-out: IC50, Example 44. Format: cell-based. From the text: The activity of the compounds of the invention may additionally be characterized by assaying the effect of the 2,4-substituted pyrimidinediamine compounds described herein on A549 lung epithelial cells and U937 cells. A549 lung epithelial cells and U937 cells up-regulate ICAM-1 (CD54) surface expression in response to a variety of different stimuli. Therefore, using ICAM-1 expression as readout, test compound effects on different signaling pathways can be assessed in the same cell type. Stimulation with IL-1β through the IL-1β receptor activates the TRAF6/NFκB pathway resulting in up-regulation of ICAM-1. IFNγ induces ICAM-1 up-regulation through activation of the JAK1/JAK2 pathway. The up-regulation of ICAM-1 can be quantified by flow cytometry across a compound dose curve and EC50, values are calculated.
U937 human monocytic cells up-regulate ICAM-1 (CD54) surface expression in response to a variety of different stimuli. Therefore, using ICAM-1 expression as readout, compound effects on different signaling pathways can be assessed in the same cell type. IFNγ up-regulates ICAM-1 through activation of the JAK/Stat pathway. In this example, the up-regulation of ICAM-1 by IFNγ was assessed.
The U937 human monocytic cell line was obtained from ATCC of Rockville Maryland, catalog number CRL-1593.2, and cultured in RPM1-1640 medium containing 10% (v/v) FCS. U937 cells were grown in 10% RPMI. The cells were then plated at a concentration of 100,000 cells per 160 μL in 96 well flat bottom plates. […] Then 4 μL of test compound was transferred to 76 μL of 10% RPMI resulting in a 10× solution (100 μM test compound, 5% DMSO). For control wells, 4 μL of DMSO was diluted into 76 μL 10% RPMI.
The assay was performed in duplicate with 8 points (8 3-fold dilution concentrations from […]) and with 4 wells of DMSO only (control wells) under stimulated conditions and 4 wells of DMSO only under unstimulated conditions.
The diluted compound plate was mixed 2× using a multimek (Beckman Coulter of Brea, California) and then 20 μL of the diluted compounds was transferred to the 96 well plate containing 160 μL of cells, which were then mixed again twice at low speeds. The cells and compounds were then pre-incubated for 30 minutes at 37° C. with 5% CO2.
The 10× stimulation mix was made by preparing a 100 ng/mL solution of human IFNγ in 10% RPMI. […] The cells were kept under conditions for stimulation for 18-24 hours at 37° C. with 5% CO2.
The cells were transferred to a 96 well round bottom plate for staining and then kept on ice for the duration of the staining procedure. Cells were spun down at 1000 rpm for 5 minutes at 4° C., following which the supernatant was removed. Following removal of the supernatant, 1 μL APC conjugated mouse anti-human ICAM-1 antibody was added per 100 μL FACS buffer. The cells were then incubated on ice in the dark for 30 minutes. Following incubation, […] of FACS buffer was added and the cells were centrifuged at 1000 rpm for 5 minutes at 4° C., following which the supernatant was removed. After removal of the supernatant, 200 μL of FACS buffer was added and the cells were resuspended. After suspension, the cells were centrifuged at 1000 rpm for 5 min at 4° C. Supernatant was then removed prior to resuspension of the cells in 150 μL FACS buffer.
Detection was performed using a BD LSR I System Flow Cytometer, purchased from BD Biosciences of San Jose, California The live cells were gated for live scatter and the geometric mean of ICAM-APC was measured (Becton-Dickinson CellQuest software version 3.3, Franklin Lakes, NJ). Both % live cells and ICAM-1 expression was analyzed. The assays for the test compounds were carried out in parallel with a control compound of known activity.
(A flow cytometer gives signals particle by particle.)

For the molecule `COc1ccc(CN2C(=O)C(C)Sc3ccc(Nc4nc(Nc5ccc(S(N)(=O)=O)cc5)ncc4F)cc32)cc1` (racemic) [Compound V-10, (R/S)-N2-(4-Aminosulphonylphenyl)-5-fluoro-N4-[2-methyl-3-oxo-4-(4-methoxybenzyl)-benzo[1,4]thiazin-6-yl]-2,4-pyrimidinediamine], the IC50 was found to be 2700 nM.

Regarding `N#CCN1C(=O)COc2ccc(Nc3nc(Nc4ccc(S(N)(=O)=O)cc4)ncc3F)cc21` [Compound V-6, N2-(4-Aminosulphonylphenyl)-5-fluoro-N4-(3-oxo-4-cyanomethyl-benz[1,4]oxazin-6-yl]-2,4-pyrimidinediamine], the 50% inhibitory concentration (IC50) turned out to be 572 nM.

Regarding `N#CCN1C(=O)COc2ccc(Nc3nc(Nc4cccc(S(N)(=O)=O)c4)ncc3F)cc21` [Compound V-7, N2-(3-Aminosulphonylphenyl)-5-fluoro-N4-(3-oxo-4-cyanomethyl-benz[1,4]oxazin-6-yl]-2,4-pyrimidinediamine], the IC50 was determined as 821 nM.

For the molecule `Cc1ccc(Nc2ncc(F)c(Nc3ccc4c(c3)N(CC#N)C(=O)CO4)n2)cc1S(N)(=O)=O` [Compound V-8, N2-(3-Aminosulphonyl-4-methylphenyl)-5-fluoro-N4-[3-oxo-4-cyanomethyl-benz[1,4]oxazin-6-yl]-2,4-pyrimidinediamine], the IC50 is 620 nM.

For `N#CCN1C(=O)CSc2ccc(Nc3nc(Nc4ccc(S(N)(=O)=O)cc4)ncc3F)cc21` [Compound V-11, N2-(4-Aminosulphonylphenyl)-5-fluoro-N4-(3-oxo-4-cyanomethyl-benzo[1,4]thiazin-6-yl)-2,4-pyrimidinediamine], the 50% inhibitory concentration (IC50) came out at 1420 nM.

Take `N#CCN1C(=O)CSc2ccc(Nc3nc(Nc4cccc(S(N)(=O)=O)c4)ncc3F)cc21` [Compound V-12, N2-(3-Aminosulphonylphenyl)-5-fluoro-N4-(3-oxo-4-cyanomethyl-benzo[1,4]thiazin-6-yl)-2,4-pyrimidinediamine]: the IC50 was 3040 nM.

`Cc1ccc(Nc2ncc(F)c(Nc3ccc4c(c3)N(CC#N)C(=O)CS4)n2)cc1S(N)(=O)=O` [Compound V-13, N2-(3-Aminosulphonyl4-methylphenyl)-5-fluoro-N4-(3-oxo-4-cyanomethyl-benzo[1,4]thiazin-6-yl)-2,4-pyrimidinediamine]: the IC50 came out at 1200 nM.

For `NS(=O)(=O)c1ccc(Nc2ncc(F)c(NCCc3ccc(-n4ccnc4)cc3)n2)cc1` [III-90, N2-(4-Aminosulfonylphenyl)-5-fluoro-N4-[4-(1-imidazolyl)phenethyl]-2,4-pyrimidinediamine], the 50% inhibitory concentration (IC50) amounted to 2630 nM.

On to `NS(=O)(=O)c1cccc(Nc2ncc(F)c(Nc3ccc(Cc4ccncc4)cc3)n2)c1` [III-128, N2-(3-Aminosulfonylphenyl)-5-fluoro-N4-[4-(4-pyridylmethyl)phenyl]-2,4-pyrimidinediamine p-Toluenesulfonic Acid Salt], for which the IC50 was 1440 nM.

`NS(=O)(=O)c1cccc(Nc2ncc(F)c(Nc3cccc(-c4cnco4)c3)n2)c1` [IV-1, N2-(3-Aminosulfonylphenyl)-5-fluoro-N4-[3-(1,3-oxazol-5-yl)phenyl]-2,4-pyrimidinediamine]: the half-maximal inhibitory concentration (IC50) was found to be 272 nM.

Consider `Cc1ccc(Nc2ncc(F)c(Nc3cccc(-c4cnco4)c3)n2)cc1S(N)(=O)=O` [IV-2, N2-(3-Aminosulfonyl-4-methylphenyl)-5-fluoro-N4-[3-(1,3-oxazol-5-yl)phenyl]-2,4-pyrimidinediamine], for which the IC50 stood at 705 nM.

For the molecule `NS(=O)(=O)c1cccc(Nc2ncc(F)c(Nc3ccc(-c4cnco4)cc3)n2)c1` [IV-5, N2-(3-Aminosulfonylphenyl)-5-fluoro-N4-[4-(1,3-oxazol-5-yl)phenyl]-2,4-pyrimidinediamine], the IC50 was 504 nM.

For the molecule `Cc1ccc(Nc2ncc(F)c(Nc3ccc(-c4cnco4)cc3)n2)cc1S(N)(=O)=O` [IV-6, N2-(3-Aminosulfonyl-4-methylphenyl)-5-fluoro-N4-[4-(1,3-oxazol-5-yl)phenyl]-2,4-pyrimidinediamine], the IC50 stood at 880 nM.
